ChEMBL document CHEMBL1201862, “PubChem BioAssay data set” (2004)
Active and inactive are the calls of the source.

How the values were obtained:
[1] = target: T1, Protein RecA (Mycobacterium tuberculosis, UniProt P9WHJ3); assay: Fluorescence Cell-Free Homogeneous Dose Retest to Identify Inhibitors of RecA-Intein Splicing Activity. [Related pubchem assays (depositor defined):AID2097, AID2223, AID489010, AID492950]; assay type: functional
T1 sequence (P9WHJ3 whole entry): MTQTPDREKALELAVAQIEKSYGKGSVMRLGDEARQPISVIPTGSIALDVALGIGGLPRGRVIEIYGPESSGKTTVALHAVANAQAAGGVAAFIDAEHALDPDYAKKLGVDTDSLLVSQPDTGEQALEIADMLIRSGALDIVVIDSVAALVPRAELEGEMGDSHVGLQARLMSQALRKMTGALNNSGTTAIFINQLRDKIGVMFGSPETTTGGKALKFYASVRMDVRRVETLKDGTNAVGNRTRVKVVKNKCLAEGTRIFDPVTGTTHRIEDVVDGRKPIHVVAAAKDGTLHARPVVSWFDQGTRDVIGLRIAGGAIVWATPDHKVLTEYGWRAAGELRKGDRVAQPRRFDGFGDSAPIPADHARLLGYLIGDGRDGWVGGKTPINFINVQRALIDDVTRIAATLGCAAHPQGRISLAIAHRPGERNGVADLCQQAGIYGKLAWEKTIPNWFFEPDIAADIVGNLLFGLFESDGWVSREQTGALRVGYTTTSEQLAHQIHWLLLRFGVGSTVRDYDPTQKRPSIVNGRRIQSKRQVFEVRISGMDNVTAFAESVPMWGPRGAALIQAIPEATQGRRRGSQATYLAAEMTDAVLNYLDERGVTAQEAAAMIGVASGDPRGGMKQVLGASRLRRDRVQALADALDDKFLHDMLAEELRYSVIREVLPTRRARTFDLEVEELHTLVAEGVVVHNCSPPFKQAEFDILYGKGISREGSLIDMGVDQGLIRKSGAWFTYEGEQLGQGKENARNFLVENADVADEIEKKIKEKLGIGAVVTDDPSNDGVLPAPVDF

[2] = target: T2, Replicative DNA helicase DnaB (Mycobacterium tuberculosis, UniProt P9WMR3); assay: DnaB intein splicing inhibitors, dose response, biochemical, cell-free fluorescence (AID 449749); assay type: functional
T2 sequence (P9WMR3 whole entry): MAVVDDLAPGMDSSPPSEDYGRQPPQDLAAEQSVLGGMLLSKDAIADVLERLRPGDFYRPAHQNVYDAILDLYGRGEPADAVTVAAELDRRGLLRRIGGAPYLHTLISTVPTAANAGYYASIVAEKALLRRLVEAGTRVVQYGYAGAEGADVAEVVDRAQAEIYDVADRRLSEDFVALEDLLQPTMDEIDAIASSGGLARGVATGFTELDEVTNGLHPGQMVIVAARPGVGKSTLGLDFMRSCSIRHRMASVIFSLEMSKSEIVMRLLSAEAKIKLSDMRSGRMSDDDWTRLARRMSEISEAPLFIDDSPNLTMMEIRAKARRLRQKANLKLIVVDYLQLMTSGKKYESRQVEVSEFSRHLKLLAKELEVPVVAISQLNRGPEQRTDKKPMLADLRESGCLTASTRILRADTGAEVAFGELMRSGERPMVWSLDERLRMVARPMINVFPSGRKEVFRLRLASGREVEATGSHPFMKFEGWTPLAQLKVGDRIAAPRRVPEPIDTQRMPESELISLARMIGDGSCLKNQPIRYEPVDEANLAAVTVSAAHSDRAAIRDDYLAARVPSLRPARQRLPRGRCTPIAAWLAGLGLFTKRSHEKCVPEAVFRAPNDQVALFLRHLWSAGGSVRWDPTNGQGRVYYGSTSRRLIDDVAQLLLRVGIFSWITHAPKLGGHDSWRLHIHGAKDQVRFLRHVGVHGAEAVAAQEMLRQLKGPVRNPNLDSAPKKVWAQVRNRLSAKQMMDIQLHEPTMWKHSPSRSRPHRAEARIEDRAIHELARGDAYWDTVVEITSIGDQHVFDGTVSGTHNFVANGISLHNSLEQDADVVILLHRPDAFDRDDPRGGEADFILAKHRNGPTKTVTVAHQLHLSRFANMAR

[3] = target: Cytochrome P450 2D6 (Homo sapiens, UniProt P10635);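 further: CYP2D6 member of a cytochrome P450 panel assay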
[4] = target: Cytochrome P450 2C19 (Homo sapiens, UniProt P33261); assay: Cytochrome panel assay with activity outcomes. Panel member name: p450-cyp2c19 Compounds with AC50 equal or less than 10 uM are considered active; assay type: functional
[5] = target: Cytochrome P450 3A4 (Homo sapiens, UniProt P08684);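 further: CYP3A4 tested as one member of a cytochrome P450 panel screen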
[6] = inhibitors of intracellular T. cruzi replication, confirmation, NIH3T3 host cells, beta-gal luminescence (AID 2044); assay type: functional, cell-based;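 further: intracellular parasites grown in NIH/3T3 mouse fibroblasts as host cells; luminescent beta-galactosidase reporter signal from transgenic T. cruzi replicating inside host cells; inhibitors lower the luminescence signal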
[7] = cytotoxicity toward NIH3T3 fibroblasts, dose response, counter-screen, cell-based, ATP luminescence, mouse fibroblasts (AID 2010); assay type: functional;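 further: cells exposed to compound for about 90 hours before reading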
[8] = target: Cytochrome P450 2C9 (Homo sapiens, UniProt P11712)
[9] = Shn3 3'UTR reporter inhibitors, dose response, cell-based, Clone20 osteoblasts, firefly luciferase, cherry-picked (AID 624132); assay type: functional;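 further: firefly luciferase luminescence from reporter carrying the Shn3 3'UTR in osteoblasts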
[10] = target: T3, Heat shock factor protein 1 (Mus musculus, UniProt P38532); assay: inhibition of MG132-induced HSE-luciferase signal, confirmation, cell-based, NIH3T3, luminescence, dose retest (AID 2382); assay type: functional;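 further: NIH3T3 fibroblasts with HSF1-driven luciferase reporter stressed by proteasome inhibitor MG132; luminescence from HSF1-driven luciferase expression after 8 hours of MG132 stress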
T3 sequence (P38532 whole entry): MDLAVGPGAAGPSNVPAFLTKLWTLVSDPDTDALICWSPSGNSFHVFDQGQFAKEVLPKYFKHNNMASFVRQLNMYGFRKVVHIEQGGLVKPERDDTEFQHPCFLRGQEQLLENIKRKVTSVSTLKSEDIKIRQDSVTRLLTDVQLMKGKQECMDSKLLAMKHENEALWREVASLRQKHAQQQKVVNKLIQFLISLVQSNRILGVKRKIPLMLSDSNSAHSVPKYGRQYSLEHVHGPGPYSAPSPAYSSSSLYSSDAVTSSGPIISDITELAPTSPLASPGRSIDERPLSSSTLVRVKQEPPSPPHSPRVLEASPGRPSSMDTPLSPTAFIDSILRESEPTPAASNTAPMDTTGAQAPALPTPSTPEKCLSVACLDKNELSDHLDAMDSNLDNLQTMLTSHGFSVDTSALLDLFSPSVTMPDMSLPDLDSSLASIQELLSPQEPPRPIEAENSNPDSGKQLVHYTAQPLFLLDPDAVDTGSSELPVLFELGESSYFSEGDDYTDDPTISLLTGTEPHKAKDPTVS

[11] = control 3'UTR Renilla luciferase suppression, dose response, counter-screen for Shn3 inhibitor project, cell-based, Clone20-Shn3RL, cherry-picked (AID 624133); assay type: functional
[12] = tested on: H4; assay: Luminescence Cell-Based Dose Response HTS to Identify Activators of 5'UTR Stem-Loop Driven Prion Protein mRNA Translation in H4 Neuroglioblastoma Cells. [Related pubchem assays: 1829 (Project Summary), 1814 (Primary HTS)]; assay type: functional; conditions: Homo sapiens
[13] = Luminescence Cell-Based Dose Response HTS to Identify Activators of Luciferase Translation or Activity in H4 […] Cells. [Related pubchem assays: 1829 (Project Summary), 1814 (Primary HTS)]; assay type: functional
[14] = tested on: Streptococcus sp. 'group A'; assay: growth inhibition of control SK(-) GAS strain, dose response, counter-screen for streptokinase expression inhibitor project, luminescence, kanamycin, BacTiterGlo, confirmation (AID 1900); assay type: functional, organism-based
[15] = target: T4, Streptokinase A (Streptococcus pyogenes serotype M1, UniProt P10520); assay: S. pyogenes streptokinase expression inhibitors, potency, dose response, plasminogen activation absorbance, OD405 (AID 1914); assay type: functional, Streptococcus pyogenes M1 GAS;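 further: secreted streptokinase activity via plasminogen activation per viability signal from cell pellet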
T4 sequence (P10520 whole entry): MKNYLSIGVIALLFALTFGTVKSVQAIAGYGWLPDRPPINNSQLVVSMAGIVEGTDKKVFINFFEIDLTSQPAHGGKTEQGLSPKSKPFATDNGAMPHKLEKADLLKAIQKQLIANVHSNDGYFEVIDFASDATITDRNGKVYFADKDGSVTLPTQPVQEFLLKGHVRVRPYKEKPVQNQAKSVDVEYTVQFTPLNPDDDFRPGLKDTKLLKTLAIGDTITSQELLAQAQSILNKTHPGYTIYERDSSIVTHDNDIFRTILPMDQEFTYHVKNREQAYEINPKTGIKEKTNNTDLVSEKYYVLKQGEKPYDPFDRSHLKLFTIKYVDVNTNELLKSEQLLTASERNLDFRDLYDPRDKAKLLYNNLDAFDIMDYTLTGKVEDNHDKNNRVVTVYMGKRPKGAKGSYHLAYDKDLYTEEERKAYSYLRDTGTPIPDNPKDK

[16] = tested on: Streptococcus; assay: Group A Streptococcus viability loss, dose response, counter-screen for streptokinase expression inhibitor project, luminescence, BacTiterGlo (AID 1915); assay type: functional, organism-based;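 further: potency for reduction of bacterial viability or growth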

Cytochrome P450 2D6, sequence (P10635 whole entry): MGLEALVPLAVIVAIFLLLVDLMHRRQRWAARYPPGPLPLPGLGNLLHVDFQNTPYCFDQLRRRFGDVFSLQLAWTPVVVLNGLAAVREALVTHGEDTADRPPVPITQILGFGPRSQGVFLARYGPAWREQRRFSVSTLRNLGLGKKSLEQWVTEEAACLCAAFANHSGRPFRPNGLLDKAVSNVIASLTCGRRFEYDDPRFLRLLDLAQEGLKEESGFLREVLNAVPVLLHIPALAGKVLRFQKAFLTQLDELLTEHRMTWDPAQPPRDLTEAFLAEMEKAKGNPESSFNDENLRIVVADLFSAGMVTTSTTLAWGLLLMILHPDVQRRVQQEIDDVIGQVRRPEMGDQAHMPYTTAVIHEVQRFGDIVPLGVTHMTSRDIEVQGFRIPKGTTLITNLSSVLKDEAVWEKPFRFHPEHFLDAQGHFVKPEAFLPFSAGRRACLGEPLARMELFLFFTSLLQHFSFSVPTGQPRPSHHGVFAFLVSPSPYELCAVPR
Cytochrome P450 2C19, sequence (P33261 whole entry): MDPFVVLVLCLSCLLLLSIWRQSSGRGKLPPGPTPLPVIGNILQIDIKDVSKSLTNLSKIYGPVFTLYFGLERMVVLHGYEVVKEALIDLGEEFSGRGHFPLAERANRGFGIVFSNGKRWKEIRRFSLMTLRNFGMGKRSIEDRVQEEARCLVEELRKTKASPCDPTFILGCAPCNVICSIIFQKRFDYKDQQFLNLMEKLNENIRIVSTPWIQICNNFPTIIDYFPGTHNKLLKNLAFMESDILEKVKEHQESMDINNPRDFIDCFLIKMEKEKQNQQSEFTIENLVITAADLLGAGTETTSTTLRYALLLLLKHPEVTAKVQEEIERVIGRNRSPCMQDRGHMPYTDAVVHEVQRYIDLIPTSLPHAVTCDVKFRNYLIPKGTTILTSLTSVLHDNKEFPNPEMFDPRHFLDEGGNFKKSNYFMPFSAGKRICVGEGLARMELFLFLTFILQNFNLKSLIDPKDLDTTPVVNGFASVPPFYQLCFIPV
Cytochrome P450 2C9, sequence (P11712 whole entry): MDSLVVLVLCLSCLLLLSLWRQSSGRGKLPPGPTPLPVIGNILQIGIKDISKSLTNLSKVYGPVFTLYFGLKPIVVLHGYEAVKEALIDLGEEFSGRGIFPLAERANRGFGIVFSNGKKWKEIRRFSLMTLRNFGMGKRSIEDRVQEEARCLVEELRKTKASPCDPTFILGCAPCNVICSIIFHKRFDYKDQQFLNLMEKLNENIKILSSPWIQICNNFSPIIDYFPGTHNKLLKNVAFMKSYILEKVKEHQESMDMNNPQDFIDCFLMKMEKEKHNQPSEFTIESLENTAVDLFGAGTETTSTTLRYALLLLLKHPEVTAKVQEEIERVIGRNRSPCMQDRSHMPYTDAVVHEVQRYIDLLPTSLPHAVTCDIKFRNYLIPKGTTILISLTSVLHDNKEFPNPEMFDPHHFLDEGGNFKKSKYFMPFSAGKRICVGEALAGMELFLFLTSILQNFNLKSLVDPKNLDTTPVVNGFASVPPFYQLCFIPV
Cytochrome P450 3A4, sequence (P08684 whole entry): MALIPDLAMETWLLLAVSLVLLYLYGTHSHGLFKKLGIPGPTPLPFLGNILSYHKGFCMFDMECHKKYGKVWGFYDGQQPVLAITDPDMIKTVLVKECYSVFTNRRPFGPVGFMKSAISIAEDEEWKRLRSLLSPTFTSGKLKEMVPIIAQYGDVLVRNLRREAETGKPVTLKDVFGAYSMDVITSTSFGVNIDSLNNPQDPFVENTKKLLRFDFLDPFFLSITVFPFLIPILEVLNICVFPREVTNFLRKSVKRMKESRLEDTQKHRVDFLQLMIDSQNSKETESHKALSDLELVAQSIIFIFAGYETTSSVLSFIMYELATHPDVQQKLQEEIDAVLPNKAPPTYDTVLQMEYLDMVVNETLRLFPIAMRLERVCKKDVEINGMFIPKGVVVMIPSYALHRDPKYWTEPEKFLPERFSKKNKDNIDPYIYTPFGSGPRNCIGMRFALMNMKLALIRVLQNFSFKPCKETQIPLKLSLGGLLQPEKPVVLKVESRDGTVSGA

## N#CC(C#N)=NNc1ccc(S(=O)(=O)N2CCCCC2)cc1
[1]
  EC50: 9.78 µM (active)
[2]
  AC50: 4.03 µM (active)

## Cc1cc(NC(=O)Nc2ccc(N(C)C)cc2)c2cc(F)cc(F)c2n1
[3]
  AC50: 31.6 µM (inconclusive)

## CC(C)(C)c1[nH]nc2c1C(Cc1ccccc1)C(C#N)=C(N)O2 (stereo unspecified)
[1]
  EC50: 2.31 µM (active)
[2]
  AC50: 13.8 µM (active)

## CCc1cc2c(nc1CC)CCN(CC/C(C)=N/O[C@@H](C)c1cn([C@@H]3COC[C@@H]3O)nn1)C2
[3]
  AC50: 2.51 µM (inconclusive)

## O=[N+]([O-])c1cc(-c2ccc(C(=S)N3CCOCC3)o2)ccc1Cl
[1]
  EC50: 10.2 µM (active)
[2]
  AC50: 39.9 µM (active)

## COc1cccc(Nc2ncc3ncc(=O)n(C)c3n2)c1
[4]
  AC50: inconclusive
[5]
  AC50: 12.6 µM (inconclusive)

## O=[N+]([O-])c1ccc(Sc2nc(O)c3ccccc3n2)c([N+](=O)[O-])c1
[1]
  EC50: 6.05 µM (active)
[6]
  EC50: 1.48 µM (active)
[2]
  AC50: 16.9 µM (active)
[7]
  EC50: > 60 µM (not active)

## COc1ccc(CCN2CC34C=CC(O3)C(C(=O)NCc3ccccc3)C4C2=O)cc1OC (stereo unspecified)
[4]; read-out: AC50
  AC50: 14.1 µM (inconclusive)

## COc1ccc(C2C(C#N)=C(N)Oc3[nH]nc(C)c32)cc1Cn1cc([N+](=O)[O-])cn1 (stereo unspecified)
[1]
  EC50: 3.11 µM (active)
[2]
  AC50: 5.32 µM (active)

## COc1ccc(S(=O)(=O)N2CCN(CC(=O)Nc3cc(OC)cc(OC)c3)CC2)cc1
[3]
  AC50: 20 µM (inconclusive)

## CCN(CC)CCc1nc(-c2ccccc2)no1
[3]
  AC50: 6.31 µM (inconclusive)

## COc1ccc(-n2c(=O)c(C)nc3cnc(Nc4cccc(OC)c4)nc32)cc1
[4]; read-out: AC50
  AC50: 39.8 µM (inconclusive)
[5]
  AC50: 10 µM (inconclusive)
[8]
  AC50: 39.8 µM (inconclusive)

## Cc1cc(NC(=O)COC(=O)c2ccc(NS(=O)(=O)c3ccc(C)c(C)c3)cc2)no1
[4]; read-out: AC50
  AC50: 14.1 µM (inconclusive)

## CC(=O)Oc1ccc(OC(C)=O)c(SCCCCCCl)c1
[9]
  AC50: 2.58 µM (active)
[10]
  EC50: 7.65 µM (active)
[11]
  AC50: 7.84 µM (active)

## O=P(O)(O)CCP(=O)(c1ccccc1)c1ccccc1
[4]
  AC50: inconclusive

## FC(F)(F)c1ccccc1-c1nc(NC2CCNCC2)c2ccccc2n1
[4]
  AC50: inconclusive

## O=C(Oc1ccc(C(=S)N2CCOCC2)cc1)c1ccc([N+](=O)[O-])cc1[N+](=O)[O-]
[1]
  EC50: 10.6 µM (active)
[2]
  AC50: 18.6 µM (active)

## Cc1ccc(C(=O)NNc2ncnc3ccccc23)cc1
[12]
  EC50: > 120 µM (not active)
[13]
  EC50: 6.62 µM (active)

## O=C(CSc1nnc(-c2ccc(Cl)cc2)o1)N1CCOCC1
[12]
  EC50: 11.8 µM (active)
[13]
  EC50: 46.3 µM (active)

## CCCC1C(C#N)=C(N)Oc2[nH]nc(C(C)(C)C)c21 (stereo unspecified)
[1]
  EC50: 0.504 µM (active)
[2]
  AC50: 2.36 µM (active)

## C[N+](C)(C)c1nc(N)nc2c1ncn2[C@H]1O[C@@H](CO)[C@@H](O)[C@H]1O
[4]
  AC50: inconclusive

## N=C(N)SCc1nc(-c2ccc(Cl)cc2)no1
[5]
  AC50: 5.01 µM (inconclusive)
[3]
  AC50: 3.16 µM (inconclusive)

## Cc1cc(NC(=O)c2ccc(S(=O)(=O)Nc3ccccc3)cc2)no1
[3]
  AC50: 25.1 µM (inconclusive)

## CCC(=O)c1cn(CC(=O)Nc2cccc(C)c2C)c2ccccc12
[9]
  AC50: 1.52 µM (active)
[11]
  AC50: 3.44 µM (active)

## CCCc1cc(=O)oc2c(CN3CCOCC3)c(O)ccc12
[4]; read-out: AC50
  AC50: 25.1 µM (inconclusive)

## FC(F)(F)c1cccc(NC(S)=Nc2ccc(Cl)cc2Cl)c1
[14]
  EC50: 4.48 µM (active)
[5]
  AC50: 28.2 µM (inconclusive)
[8]
  AC50: 31.6 µM (inconclusive)
[15]
  EC50: > 150 µM (not active)
[3]
  AC50: 7.94 µM (inconclusive)
[16]
  EC50: 46.8 µM (active)

## COc1cccc(-c2[nH]nc3c2C(c2ccc(C)o2)C(C#N)=C(N)O3)c1 (stereo unspecified)
[1]
  EC50: 1.53 µM (active)
[8]
  AC50: 15.8 µM (inconclusive)
[2]
  AC50: 8.74 µM (active)

## CCOc1cc(C(c2c(C)n[nH]c2O)c2c(C)n[nH]c2O)cc(Cl)c1O
[1]
  EC50: 4.74 µM (active)
[2]
  AC50: > 380 µM (inactive)

## Nc1n[nH]c(SCC(=O)Nc2ccccc2Sc2ccc(Cl)cc2)n1
[3]
  AC50: 12.6 µM (inconclusive)

## COc1cccc(CC(C(=O)Nc2cc(C)ccc2C)c2nn[nH]n2)c1OC (stereo unspecified)
[5]
  AC50: 25.1 µM (inconclusive)
[3]
  AC50: 15.8 µM (inconclusive)

## Cc1ccc(SCc2cc(=O)n(C)[nH]2)cc1
[1]
  EC50: 5.29 µM (active)
[2]
  AC50: 13.3 µM (active)

## Cc1cc(-c2c(C)[nH]n(-c3ccccc3)c2=O)n(-c2ccccc2)n1
[4]; read-out: AC50
  AC50: 20 µM (inconclusive)

## CCCCOc1cc(C(=O)NCCN(CC)CC)c2ccccc2n1 [DIBUCAINE]
[3]
  AC50: 7.94 µM (inconclusive)
